Consider 14 molecules from patent publication US20230339981A1, “KRAS G12D MODULATING COMPOUNDS” (priority 2022, published 2023).

In test [1] the target is GDP-loaded KRAS G12D (Homo sapiens (Human), UniProt P01116, G12D). Put plainly: KRAS G12D (GDP) biochemical assay (TR-FRET probe displacement). The format is binding. To be noted: 2 hours. The essentials:
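Compound pre-incubated 30 min with GDP-loaded KRAS G12D in 50 mM Hepes pH 7.4, 150 mM NaCl, 5 mM MgCl2, 0.005% Tween-20, then Eu-streptavidin and TR-FRET probe added. After 2 h at room temperature, TR-FRET ratio read; IC50 is 50% ratio decrease, sigmoidal fit.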

Test [2] relates to GP2D (KRAS G12D) cells. Kind of test: 2D cell viability assay (CellTiter-Glo). The format is cell-based. The settings on record: GP2d, 96 h, 4 days. An outline of the steps: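 GP2D (KRAS G12D) cells, 1000/well in RPMI + 10% FBS, were plated onto compound (1:3 DMSO series) and grown 4 days at 37 °C, 5% CO2 in 2D. CellTiter-Glo luminescence was read; EC50 is the concentration giving 50% signal decrease, from sigmoidal fit.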

Test [3] has as its system AsPC-1 (KRAS G12D) cells. Kind of test: 3D cell viability assay (spheroids, CellTiter-Glo 3D). The format is cell-based. To be noted: Homo sapiens, ASPC1, 96 h, AsPC-1 cells, 3D spheroids, 4 days. An outline of the steps:
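AsPC-1 cells (1000/well) in DMEM with 10% FBS formed spheroids over 3 days at 37 °C in ultra-low attachment plates, then were treated with 1:3 serial dilutions for 4 days. Viability read by CellTiter-Glo 3D luminescence; EC50 as concentration giving 50% signal decrease, sigmoidal fit.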

The structures appear in SMILES notation.

Sequence of GDP-loaded KRAS G12D (P01116-2 other isoform, or with tags, fused parts or gaps G12D): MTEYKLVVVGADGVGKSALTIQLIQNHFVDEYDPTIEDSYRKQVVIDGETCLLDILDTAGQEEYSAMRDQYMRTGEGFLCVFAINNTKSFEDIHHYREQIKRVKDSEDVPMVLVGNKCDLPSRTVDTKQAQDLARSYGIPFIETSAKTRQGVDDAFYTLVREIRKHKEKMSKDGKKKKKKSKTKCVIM

Regarding `C#Cc1c(F)ccc2cc(O)cc(-c3nc4c5c(nc(OCC6(CN7CCC(CC(F)(F)F)CC7)CC6)nc5c3F)N3C[C@H]5CC[C@H](N5)[C@H]3CC4)c12` [Example 167, 5-ethynyl-6-fluoro-4-((5aR,6S,9R)-1-fluoro-12-((1-((4-(2,2,2-trifluoroethyl)piperidin-1-yl)methyl)cyclopropyl)methoxy)-4,5,5a,6,7,8,9,10-octahydro-3,10a,11,13,14-pentaaza-6,9-methanonaphtho[1,8-ab]heptalen-2-yl)naphthalen-2-ol], the IC50 in test [1] is under 0.1 nM. For the same molecule, the EC50 in test [2] was 0.7 nM; in test [3], 32 nM.

The molecule `C#Cc1c(F)ccc2cc(O)cc(-c3nc4c5c(nc(OCC6(CN7CCC(OC)(C(F)(F)F)CC7)CC6)nc5c3F)N3C[C@H]5CC[C@H](N5)[C@H]3CC4)c12` [Example 168, 5-ethynyl-6-fluoro-4-((5aR,6S,9R)-1-fluoro-12-((1-((4-methoxy-4-(trifluoromethyl)piperidin-1-yl)methyl)cyclopropyl)methoxy)-4,5,5a,6,7,8,9,10-octahydro-3,10a,11,13,14-pentaaza-6,9-methanonaphtho[1,8-ab]heptalen-2-yl)naphthalen-2-ol] had an IC50 in test [1] of 0.2 nM. Also, the EC50 came out at 0.5 nM in test [2] and 24 nM in test [3].

In test [1], `C#Cc1c(F)ccc2cccc(-c3nc4c5c(nc(OC[C@@]67CCCN6C[C@H](F)C7)nc5c3F)N3C[C@H]5CC[C@H](N5)[C@H]3[C@H](CC)O4)c12` [Example 169, (5S,5aS,6S,9R)-5-ethyl-2-(8-ethynyl-7-fluoronaphthalen-1-yl)-1-fluoro-12-(((2R,7aS)-2-fluorotetrahydro-1H-pyrrolizin-7a(5H)-yl)methoxy)-5a,6,7,8,9,10-hexahydro-5H-4-oxa-3,10a,11,13,14-pentaaza-6,9-methanonaphtho[1,8-ab]heptalene] had an IC50 of 0.8 nM. Further, the EC50 in test [2] was 26.5 nM; in test [3], 190 nM.

Turning to `C#Cc1c(F)ccc2cccc(-c3nc4c5c(nc(OC[C@@]67CCCN6C[C@H](F)C7)nc5c3F)N3C[C@H]5CC[C@H](N5)[C@@H]3CC4)c12` [Example 170, (5aS,6S,9R)-2-(8-ethynyl-7-fluoronaphthalen-1-yl)-1-fluoro-12-(((2R,7aS)-2-fluorotetrahydro-1H-pyrrolizin-7a(5H)-yl)methoxy)-4,5,5a,6,7,8,9,10-octahydro-3,10a,11,13,14-pentaaza-6,9-methanonaphtho[1,8-ab]heptalene], the IC50 in test [1] is 18.1 nM. The EC50 in test [2] is 100 nM; in test [3], over 1000 nM.

`C#Cc1c(F)ccc2cccc(-c3nc4c5c(nc(OC[C@@]67CCCN6C[C@H](F)C7)nc5c3F)N3C[C@H]5CC[C@H](N5)[C@H]3CC[C@H]4C)c12` [Example 171, (4R,6aR,7S,10R)-2-(8-ethynyl-7-fluoronaphthalen-1-yl)-1-fluoro-13-(((2R,7aS)-2-fluorotetrahydro-1H-pyrrolizin-7a(5H)-yl)methoxy)-4-methyl-5,6,6a,7,8,9,10,11-octahydro-4H-3,11a,12,14,15-pentaaza-7,10-methanocyclohepta[4,5]cycloocta[1,2,3-de]naphthalene]: the IC50 in test [1] is under 0.1 nM. Further, the figures for the EC50 in test [2] and in test [3] were 1.9 nM and 120 nM, respectively.

Regarding `C#Cc1c(F)ccc2cccc(-c3nc4c5c(nc(OC[C@@]67CCCN6C[C@H](F)C7)nc5c3F)N3C[C@H]5CC[C@H](N5)[C@H]3C[C@@H]4F)c12` [Example 172, (4S,5aR,6S,9R)-2-(8-ethynyl-7-fluoronaphthalen-1-yl)-1,4-difluoro-12-(((2R,7aS)-2-fluorotetrahydro-1H-pyrrolizin-7a(5H)-yl)methoxy)-4,5,5a,6,7,8,9,10-octahydro-3,10a,11,13,14-pentaaza-6,9-methanonaphtho[1,8-ab]heptalene], the IC50 in test [1] was found to be 3.5 nM. The EC50 is 65.3 nM in test [2] and 480 nM in test [3].

`C#Cc1c(F)ccc2cccc(-c3nc4c5c(nc(OC[C@@]67CCCN6C[C@H](F)C7)nc5c3F)N3C[C@H]5CC[C@H](N5)[C@H]3C[C@H]4F)c12` [Example 173, (4R,5aR,6S,9R)-2-(8-ethynyl-7-fluoronaphthalen-1-yl)-1,4-difluoro-12-(((2R,7aS)-2-fluorotetrahydro-1H-pyrrolizin-7a(5H)-yl)methoxy)-4,5,5a,6,7,8,9,10-octahydro-3,10a,11,13,14-pentaaza-6,9-methanonaphtho[1,8-ab]heptalene] yielded an IC50 in test [1] of under 0.1 nM. Also, the results for the EC50 in test [2] and in test [3] were 4.2 nM and 100 nM, respectively.

The molecule `C#Cc1c(F)ccc2cccc(-c3nc4c5c(nc(OC[C@@]67CCCN6C[C@H](F)C7)nc5c3F)N3C[C@H]5CC[C@H](N5)[C@H]3C[C@@H]4CC)c12` [Example 175, (4S,5aR,6S,9R)-4-ethyl-2-(8-ethynyl-7-fluoronaphthalen-1-yl)-1-fluoro-12-(((2R,7aS)-2-fluorotetrahydro-1H-pyrrolizin-7a(5H)-yl)methoxy)-4,5,5a,6,7,8,9,10-octahydro-3,10a,11,13,14-pentaaza-6,9-methanonaphtho[1,8-ab]heptalene] gave an IC50 in test [1] of 0.5 nM. The EC50 was determined as 11.9 nM in test [2] and 150 nM in test [3].

Regarding `C#Cc1c(F)ccc2cc(O)cc(-c3nc4c5c(nc(OCC6(CN7CC8CC8C7)CC6)nc5c3F)N3C[C@H]5CC[C@H](N5)[C@H]3CC4)c12` (stereo partly drawn) [Example 176, 4-((5aR,6S,9R)-12-((1-((3-azabicyclo[3.1.0]hexan-3-yl)methyl)cyclopropyl)methoxy)-1-fluoro-4,5,5a,6,7,8,9,10-octahydro-3,10a,11,13,14-pentaaza-6,9-methanonaphtho[1,8-ab]heptalen-2-yl)-5-ethynyl-6-fluoronaphthalen-2-ol], the IC50 in test [1] came to 0.1 nM. Besides, the EC50 in test [2] is 0.4 nM; in test [3] it was 9.8 nM.

In test [1], `C#Cc1c(F)ccc2cc(O)cc(-c3nc4c5c(nc(OCC6(CN7CC8CC(C8)C7)CC6)nc5c3F)N3C[C@H]5CC[C@H](N5)[C@H]3CC4)c12` [Example 179, 4-((5aR,6S,9R)-12-((1-((3-azabicyclo[3.1.1]heptan-3-yl)methyl)cyclopropyl)methoxy)-1-fluoro-4,5,5a,6,7,8,9,10-octahydro-3,10a,11,13,14-pentaaza-6,9-methanonaphtho[1,8-ab]heptalen-2-yl)-5-ethynyl-6-fluoronaphthalen-2-ol] returned an IC50 of 0.1 nM. Moreover, the EC50 stood at 0.4 nM in test [2] and 7.7 nM in test [3].

Molecule `C#Cc1c(F)ccc2cc(O)cc(-c3nc4c5c(nc(OC[C@@]67CCCN6[C@H](COC(C(F)(F)F)(C(F)(F)F)C(F)(F)F)CC7)nc5c3F)N3C[C@H]5CC[C@H](N5)[C@H]3CCC4)c12` [Example 181, 5-ethynyl-6-fluoro-4-((6aR,7S,10R)-1-fluoro-13-(((3S,7aS)-3-(((1,1,1,3,3,3-hexafluoro-2-(trifluoromethyl)propan-2-yl)oxy)methyl)tetrahydro-1H-pyrrolizin-7a(5H)-yl)methoxy)-5,6,6a,7,8,9,10,11-octahydro-4H-3,11a,12,14,15-pentaaza-7,10-methanocyclohepta[4,5]cycloocta[1,2,3-de]naphthalen-2-yl)naphthalen-2-ol] displayed an IC50 in test [1] of 0.5 nM. Further, the EC50 is 0.3 nM in test [2] and 6.9 nM in test [3].

`C#Cc1c(F)ccc2cccc(-c3nc4c5c(nc(OC[C@@]67CCCN6C[C@H](F)C7)nc5c3F)N3C[C@H]5CC[C@H](N5)[C@H]3[C@@H](C)C4)c12` [Example 183, (5S,5aR,6S,9R)-2-(8-ethynyl-7-fluoronaphthalen-1-yl)-1-fluoro-12-(((2R,7aS)-2-fluorotetrahydro-1H-pyrrolizin-7a(5H)-yl)methoxy)-5-methyl-4,5,5a,6,7,8,9,10-octahydro-3,10a,11,13,14-pentaaza-6,9-methanonaphtho[1,8-ab]heptalene] showed an IC50 in test [1] of 1.9 nM. The values for the EC50 in test [2] and in test [3] were 63 nM and 270 nM, respectively.

Consider `C#Cc1c(F)ccc2cc(O)cc(-c3nc4c5c(nc(OCC6(CN7CCC8(CC7)CC8(F)F)CC6)nc5c3F)N3C[C@H]5CC[C@H](N5)[C@H]3CC4)c12` [Example 185, 4-((5aR,6S,9R)-12-((1-((1,1-difluoro-6-azaspiro[2.5]octan-6-yl)methyl)cyclopropyl)methoxy)-1-fluoro-4,5,5a,6,7,8,9,10-octahydro-3,10a,11,13,14-pentaaza[6,9]methanonaphtho[1,8-ab]heptalen-2-yl)-5-ethynyl-6-fluoronaphthalen-2-ol], for which the IC50 in test [1] is 0.4 nM. In addition, the EC50 stood at 2.7 nM in test [2] and 23.1 nM in test [3].

Consider `C#Cc1c(F)ccc2cc(O)cc(-c3nc4c5c(nc(OC[C@@]67CCCN6C[C@H](F)C7)nc5c3F)N3C[C@H]5CC[C@H](N5)[C@H]3CCCC4)c12` [Example 189, 5-ethynyl-6-fluoro-4-((7aR,8S,11R)-1-fluoro-14-(((2R,7aS)-2-fluorotetrahydro-1H-pyrrolizin-7a(5H)-yl)methoxy)-4,5,6,7,7a,8,9,10,11,12-decahydro-3,12a,13,15,16-pentaaza-8,11-methanocyclohepta[4,5]cyclonona[1,2,3-de]naphthalen-2-yl)naphthalen-2-ol], for which the IC50 in test [1] was 0.1 nM. For the same molecule, the EC50 in test [2] amounted to 0.6 nM; in test [3], 2.9 nM.
